Experimental data published in patent US20090163577A1, “METHODS AND COMPOSITIONS FOR ANTAGONIZING ANTI-APOPTOTIC Bcl-2-FAMILY PROTEINS” (Burnham Institute for Medical Research, priority 2007, published 2009).

Assays:
Bfl-1 = target: T1, Bfl-1 (Homo sapiens, UniProt Q16548); test: FPA competitive FITC-Bid BH3 peptide displacement, Bfl-1 (also HTS); conditions: FPA, FITC-Bid BH3 peptide, compared with GA
T1 sequence (Q16548 1-155 limits assumed): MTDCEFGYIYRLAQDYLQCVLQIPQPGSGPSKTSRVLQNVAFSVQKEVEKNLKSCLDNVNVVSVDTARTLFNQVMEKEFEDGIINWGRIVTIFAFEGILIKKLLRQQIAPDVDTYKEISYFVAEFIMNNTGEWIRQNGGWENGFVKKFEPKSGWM

Jurkat cells [1] = test: Cytotoxicity of GA analogs, live cells by Annexin V/PI, Jurkat; conditions: 20 hrs, 0-50 μM
[2] = tested on: Bcl-2 over-expressing HL-60 cells; test: Cytotoxicity in NEO-control vs Bcl-2 over-expressing HL-60 cells; type: cell-based; conditions: HL-60 Bcl-2 vs NEO-control, 8 hrs
Excerpt: Data are representative of at least 3 independent experiments.
Cell Culture, Transfection, and Apoptosis Assays.
We tested the cytotoxic activity of GA against HL-60 cells that had been stably transfected with NEO-control or Bcl-2-expression plasmids (Konopleva et al., Blood 95:3929-3938, 2000).

Jurkat cells [3] = tested on: Jurkat cells

SMILES | activity in BH3 displacement assays (Bfl-1) | cytotoxic activity against cultured leukemia cells (Jurkat cells [1]) | effect of Bcl-2 over-expression on cytotoxicity [2] | cytotoxic potency relative to GA (fold less potent) (Jurkat cells [3])
CC(C)=CCCC1(C)C=Cc2c(O)c3c(c(CC=C(C)C)c2O1)OC12C(=CCCC1C(C)(C)O[C@@]2(C/C=C(\C)C(=O)O)C(=O)O)C3=O (some centres unmarked) [Garcinolic acid] | greatly reduced activity | non-toxic |  | 
CN[C@@H]1C[C@H]2O[C@@](C)([C@@H]1OC)n1c3ccccc3c3c4c(c5c6ccccc6n2c5c31)C(=O)NC4 [staurosporine, reference compound] |  |  | block to apoptosis | 
CC(C)=CCC[C@]1(C)C=Cc2c(O)c3c(c(CC=C(C)C)c2O1)O[C@]12C(C[C@@H]4CC1C(C)(C)O[C@@]2(C/C=C(/C)C(=O)O)C4O)C3=O (some centres unmarked) [tetrahydro-GA] | greatly reduced activity |  |  | ~50 fold
